Experimental data: paper PMC11995866, “Roles of basic amino acid residues in substrate binding and transport of the light-driven anion pump Synechocystis halorhodopsin (SyHR)” (The Journal of Biological Chemistry, 2025)
Numbering of substitutions follows the chain as printed.

How the values were obtained:
[1] = molecular target: T1, Synechocystis halorhodopsin (SyHR) (Synechocystis sp. PCC 7509, UniProt A0A9X9ZA75, R71Y); assay: biochemical
T1 sequence (A0A9X9ZA75 1-234 R71Y): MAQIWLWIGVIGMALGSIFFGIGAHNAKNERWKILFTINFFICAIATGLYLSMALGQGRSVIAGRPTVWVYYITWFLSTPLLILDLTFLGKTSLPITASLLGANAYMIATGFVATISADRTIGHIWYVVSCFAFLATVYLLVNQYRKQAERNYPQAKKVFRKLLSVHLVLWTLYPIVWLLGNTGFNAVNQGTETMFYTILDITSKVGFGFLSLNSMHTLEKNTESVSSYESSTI

[2] = molecular target: T2, Synechocystis halorhodopsin (SyHR) (Synechocystis sp. PCC 7509, UniProt A0A9X9ZA75, H167A); assay: absorption spectral shift titration (UV-visible), single-site Hill fit; format: binding
T2 construct: codon-optimised, C-terminal His6 tag, pET21a, E. coli BL21(DE3) with all-trans retinal; HisTrap-purified in DDM
T2 sequence (A0A9X9ZA75 1-234 H167A): T1 sequence (A0A9X9ZA75 1-234 R71Y) with Y71R, H167A

[3] = molecular target: T3, Synechocystis halorhodopsin (SyHR) (Synechocystis sp. PCC 7509, UniProt A0A9X9ZA75, R71K); assay: as above; format: binding
T3 construct: codon-optimised, C-terminal His6 tag, pET21a, E. coli BL21(DE3) with all-trans retinal; HisTrap-purified in DDM
T3 sequence (A0A9X9ZA75 1-234 R71K): T1 sequence (A0A9X9ZA75 1-234 R71Y) with Y71K

[4] = molecular target: T4, Synechocystis halorhodopsin (SyHR) (Synechocystis sp. PCC 7509, UniProt A0A9X9ZA75, R71A); assay: biochemical
T4 sequence (A0A9X9ZA75 1-234 R71A): T1 sequence (A0A9X9ZA75 1-234 R71Y) with Y71A

[5] = molecular target: T5, Synechocystis halorhodopsin (SyHR) (Synechocystis sp. PCC 7509, UniProt A0A9X9ZA75); assay: absorption spectral shift titration (UV-visible), single-site Hill fit; format: binding
T5 construct: codon-optimised, C-terminal His6 tag, pET21a, E. coli BL21(DE3) with all-trans retinal; HisTrap-purified in DDM
T5 sequence (A0A9X9ZA75 1-234): T1 sequence (A0A9X9ZA75 1-234 R71Y) with Y71R

SMILES	Kd [1] [µM]	Kd [2] [µM]	Kd [3] [µM]	Kd [4] [µM]	Kd [5] [µM]
Cl [Cl^−]	1400	360	550	4500	590
O=S(=O)(O)O [SO4^2−]		6500	3800		3600
